Measurements as given in patent publication US10633408B2, “Nucleoside-lipid compounds with pH-sensitive dialkylorthoester chains and their use for transportation or vectorization of at least one therapeutic agent” (UNIVERSITE DE BORDEAUX, priority 2015, dated 2020).

Assays:
[1] = DLS of nucleolipid/DOPE liposomes and siRNA complexes; assay type: physicochemical; conditions: for size of siRNA complexes with siRNA RECQL4 / size of siRNA complexes with siRNA luciferase: 10 pmol siRNA + 2 nmol nucleolipid/DOPE, serum-free medium; for diameter of liposomes: nucleolipid/DOPE liposomes in water
Protocol: (§1) Compound 6 and DOPE were mixed with molar ratio and dissolved in methylene chloride. The solvent was evaporated with nitrogen flow while stirring to prepare lipids films. This preparation was rehydrated with 1 mL of water, them submitted to Vortex, and the tube was put in ultrasonic bath (37 kHz) during 15-20 min at 15° C. The same experiment was carried out with DOTAU/DOPE (1:1) Liposomes were analysed by DLS (Malvern, Zetasizer) and measured 74 nm of diameters for orthoester and 48 nm for DOTAU. 10 pmol of siRNA were added to 2 nmol of orthoester/DOPE in 100 μL of PRMI 1640 serum-free medium. After submitting to Vortex, this solution was incubated 20 min at RT and transferred in wells. The siRNA orthoester/DOPE complexes were analysed by DLS and measured at 90 nm with siRNA luciferase and at 100 nm with siRNA RECQL4 for orthoester (69 nm and 63 nm, respectively for DOTAU).

[2] = system: RECQL4; assay: Inhibition of RECQL4 by siRNA transfection, qPCR normalized with GAPDH; assay type: cell-based, human; conditions: MDA-MB-134 breast cancer cells, 72 h, nucleolipid/DOPE complexes, N/P 1/5 and 1/10
Protocol: as §1, with “RECQL4 is a human RecQ helicase implicated in three syndromes (Rothmund-Thompson, […] and Baller-Gerold) displaying accelerating aging, developmental abnormalities and cancer's predisposition. […] In this example, the efficacy of compound 6 prepared in example 2 in the transfection of siRNA targeting RECQL4 is evaluated. Compound” for “Compound”, “(1:1)” for “(1:1) Liposomes were analysed by DLS (Malvern, Zetasizer) and measured 74 nm of diameters for orthoester and 48 nm for DOTAU.”, “DOTAU). 2.10^5 MDA-MB-134 cells by well were added in 500 μL final volume. […] RNA was converted in cDNA by Reverse Transcription with QuantiTect kit (Qiagen). Then, a quantitative PCR was performed with 25 ng of cDNA, the master mix GoTaq qPCR (Promega) and specific primers (1 μM). […]” for “DOTAU).”

[3] = 1H NMR kinetic study of orthoester hydrolysis; assay type: physicochemical; conditions: for rate of hydrolysis of the orthoester function, effect of pH: MeOD:phosphate buffer (1:2), pH 5 vs 7.4, 37° C.
Protocol: 1HNMR experiments were performed to study the kinetics of hydrolysis for both anionic and cationic compounds of formula (I) at pH 5 and 7.4 by measuring the percentage of hydrolyzed compound versus time.
10 mg of cationic compound (6) prepared in example 2 or anionic compound (11) prepared in example 6 were dissolved in a mixture of MeOD:Buffer phosphate (1:2) (pH 5 or 7.4), mixed and placed in a NMR tube. ^1H NMR Experiment was performed at 37° C. at 300 MHz on a BRUKER® Avance DPX-300.
After hydrolysis of the orthoester function, the chemical shifts of the thymidine CH3 protons are shifted upfield and downfield for compound 6 and 11, respectively. Thus, the percentage of hydrolysis versus time was followed by integrating the signals of the CH3 protons.

[4] = Small-angle X-ray scattering (SAXS) of compound 6/DOPC; assay type: physicochemical; conditions: with DOPC (mol ratio 50/50), incubation at pH=5 and 37° C.
Protocol: […] SAXS experiments were carried out at the Centre de Recherche Paul Pascal, Pessac, France on a NanoStar (Bruker). With a sample to detector distance equal to 650 mm and a radiation wavelength of A=0.154 nm, the scattering wave vectors in reciprocal space ranged from q=0.16 nm^−1 and 3.4 nm^−1.
The beam size at the sample position was 0.45 mm (0). Images were captured by the HiStar (Bruker).
The array of detection totalizes 1024×1024 pixels, each one with 100 μm for side. Data were radially averaged and corrected for background scattering by using the software SAXS-Bruker. All experiments were carried out on thermally equilibrated samples at 25° C., which was obtained by keeping the sample holders under water circulation at controlled temperature.

[5] = Liposome characterization by dynamic light scattering and zeta potential; assay type: physicochemical; conditions: liposomes of the compound alone, 1 mg/mL in Milli-Q water; for Pdi (polydispersity) of liposomes / d (diameter) of liposomes: DLS
Protocol: Zeta potential measurements and Dynamic light scattering (DLS) measurements of liposomes were performed with a MalvernNanoZS device.
100 μL of stock solutions of anionic or cationic compounds of formula (I) prepared in examples 2 and 6 (10 mg/mL in dichloromethane) were placed in glass tubes, dried under dry N2 and then desiccated under vacuum. Milli-Q Water was added to the dried lipid to obtain liposomes dispersions (1 mg/mL) after vortex agitation and sonication for 10 min.
The size distribution by intensity measured by dynamic light scattering (DLS) of liposomes prepared from compound 11 prepared in example 6 (anionic compounds of formula (I)) is shown on FIG. 3A, and of liposomes prepared from compound 6 prepared in example 2 (cationic compound of formula (I)) is shown on FIG. 3B.

size of siRNA complexes with siRNA RECQL4 [1] [nm]	size of siRNA complexes with siRNA luciferase [1] [nm]	diameter of liposomes [1] [nm]	Structure (SMILES)	expression of RECQL4 after siRNA transfection [2]	rate of hydrolysis of the orthoester function, effect of pH [3]	SAXS profile before and after incubation [4]	ζ (zeta potential) of liposomes [5] [mV]	Pdi (polydispersity) of liposomes [5]	d (diameter) of liposomes [5] [nm]	rate of hydrolysis relative to cationic compound 6 ([3]; at both pH 5 and 7, 37° C.)
63	69	48	CCCCCCCC/C=C\CCCCCCCC(=O)OC1C(C[N+](C)(C)C)OC(n2ccc(=O)[nH]c2=O)C1OC(=O)CCCCCCC/C=C\CCCCCCCC.Cc1ccc(S(=O)(=O)[O-])cc1 (stereo not drawn) [DOTAU, N-[5′-(2′,3′-dioleoyl)uridine]-N′,N′,N′-trimethylammonium tosylate, reference compound]	not able to transfect the siRNA targeting RECQL4						
100	90	74	CCCCCCCCCCCCCCCCOC(OCCCCCCCCCCCCCCCC)O[C@H]1C[C@H](n2cc(C)c(=O)[nH]c2=O)O[C@@H]1C[N+](C)(C)C.CS(=O)(=O)[O-] [Compound 6, 1-((2R,3S,5R)-3-(bis(hexadecyloxy)methoxy)-5-(5-methyl-2,4-dioxo-3,4-dihydropyrimidin-1 (2H)-yl)tetrahydrofuran-2-yl)-N,N,N-trimethyl-methanaminium methanesulfonate]	able to inhibit the expression of RECQL4	higher rates of hydrolysis at pH=5	evolves from vesicular to multilamellar systems	51.4	0.221	135.9	
			CCCCCCCCCCCCCCCCOC(OCCCCCCCCCCCCCCCC)O[C@H]1C[C@H](n2cc(C)c(=O)[nH]c2=O)O[C@@H]1COP(=O)(O)OC [Compound 11, ((2R,3S,5R)-3-(bis(hexadecyloxy)methoxy)-5-(5-methyl-2,4-dioxo-3,4-dihydropyrimidin-1(2H)-yl)tetrahydrofuran-2-yl)methyl methyl phosphate]		higher rates of hydrolysis at pH=5		−43.3	0.163	100.4	increased hydrolysis rates
